Here are results for one molecule from patent publication US12304813B2, “Sodium thiosulfate-containing pharmaceutical compositions” (Hope Medical Enterprises, Inc., priority 2009, dated 2025).

Data set [1] deals with platinum-induced nephrotoxicity. The settings on record: associated with platinum-containing chemotherapeutic agents; Current Opinions in Oncology 1995; cited from earlier work.
In a further data set the test system is vascular calcification. The following applies: literature report, Kidney International 2008; cited from earlier work.
Data set [2] has as its system platinum-induced ototoxicity. The following applies: associated with platinum-containing chemotherapeutic agents; Current Opinions in Oncology 1995; cited from earlier work.
In a further data set the test system is calciphylaxis. The settings on record: literature report, Archives of Dermatology 2007; cited from earlier work.
For data set [3] the following is noted: Example 1 batch. As to the method:
In another embodiment, the sodium thiosulfate provided herein has a pH between about 6 to about 8 when measured in a 10% solution at 25° C. In certain embodiments, the pH of the sodium provided herein is measured using a pH meter. In certain embodiments, the pH of the sodium thiosulfate provided herein is determined according to Method 791 in USP XXXII (2009).

Each structure is given as a SMILES string.

Consider `O.O.O.O.O.O=S([O-])([O-])=S.[Na+].[Na+]` [sodium thiosulfate pentahydrate], for which the “treatment to prevent platinum-induced nephrotoxicity” value in data set [1] is recorded as “effective treatment”. For the same molecule, the “treatment for vascular calcification” value in the data set on vascular calcification is given as “effective treatment”. In addition, in data set [2], the “treatment to prevent platinum-induced ototoxicity” value is reported as “effective treatment”. The treatment for calciphylaxis entry in the data set with calciphylaxis is “effective treatment”. In addition, the “pH of 10% solution at 25° C.” value in data set [3] stood at 6.6.
